Measured values as given in US9339503B2, “Tetrahydro-quinazolinone derivatives as TANK and PARP inhibitors” (MERCK PATENT GMBH, priority 2012, dated 2016).

Assays:
[1] = target: T1, GST-tagged Tnks-2 (873-1166 aa) (Homo sapiens, UniProt Q9H2K2); test: TNKS 2 activity ELISA (autoparsylation assay); assay type: biochemical; conditions: read-out: IC50 tankyrase 2 (ELISA assay)
T1 construct: GST-tagged Tnks-2 (873-1166 aa, prepared in-house); made in house
Description: (§1) Biochemical Activity Testing of TNKS 1 and 2: Activity ELISA (Autoparsylation Assay)
(§2) For analysis of autoparsylation activity of TNKS 1 and 2 an activity ELISA was performed: In the first step GST tagged TNKS was captured on a Glutathione coated plate. Then the activity assay with biotinylated NAD was performed in the absence/presence of the compounds. During the enzymatic reaction GST tagged TNKS transferred biotinylated ADP-ribose to itself from biotinylated NAD as co-substrate. For the detection streptavidin-HRP conjugate was added that bound to the biotinylated TNKS and was thereby captured to the plates. The amount of biotinylated resp autoparsylated TNKS was detected with a luminescence substrate for HRP. The level of the luminescence signal correlated directly with the amount of autoparsylated TNKS and therefore with activity of TNKS.
(§3) The activity ELISA was performed in 384 well Glutathione coated microtiter plates (Express capture Glutathione coated plate, Biocat, Heidelberg, Germany). The plates were pre-equilibrated with PBS. Then the plates were incubated with 50 μl 20 ng/well GST-tagged Tnks-1 (1023-1327 aa, prepared in-house), respectively GST-tagged Tnks-2 (873-1166 aa, prepared in-house) in assay buffer (50 mM HEPES, 4 mM Mg-chloride, 0.05% Pluronic F-68, 2 mM DTT, pH 7.7) overnight at 4° C. The plates were washed 3 times with PBS-Tween-20. The wells were blocked by incubation at room temperature for 20 minutes with 50 μl blocking buffer (PBS, 0.05% Tween-20, 0.5% BSA). Afterwards the plates were washed 3 times with PBS-Tween-20. The enzymatic reaction was performed in 50 μl reaction solution (50 mM HEPES, 4 mM Mg-chloride, 0.05% Pluronic F-68, 1.4 mM DTT, 0.5% DMSO, pH 7.7) with 10 μM bio-NAD (Biolog, Life science Inst., Bremen, Germany) as co-substrate in the absence or presence of the test compound (10 dilution concentrations) for 1 hour at 30° C. The reaction was stopped by 3 times washing with PBS-Tween-20. For the detection 50 μl of 20 ng/μl Streptavidin, HRP conjugate (MoBiTec, Göttingen, Germany) in PBS/0.05% Tween-20/0.01% BSA were added and the plates were incubated for 30 minutes at room temperature. After three times washing with PBS-Tween-20 50 μl of SuperSignal ELISA Femto Maximum sensitivity substrate solution (ThermoFisherScientific (Pierce), Bonn, Germany) were added. Following a 1 minute incubation at room temperature luminescence signals were measured with an Envision multimode reader (Perkin Elmer LAS Germany GmbH) at 700 nm. The full value used was the inhibitor-free reaction. The pharmacological zero value used was XAV-939 (Tocris) in a final concentration of 5 μM. The inhibitory values (IC50) were determined using either the program Symyx Assay Explorer® or Condosseo® from GeneData.

[2] = target: T2, GST-tagged Tnks-1 (1023-1327 aa) (Homo sapiens, UniProt O95271); test: TNKS 1 activity ELISA (autoparsylation assay); assay type: biochemical; conditions: read-out: IC50 tankyrase 1 (ELISA assay)
T2 construct: GST-tagged Tnks-1 (1023-1327 aa, prepared in-house); made in house
T2 sequence (O95271 1023-1327): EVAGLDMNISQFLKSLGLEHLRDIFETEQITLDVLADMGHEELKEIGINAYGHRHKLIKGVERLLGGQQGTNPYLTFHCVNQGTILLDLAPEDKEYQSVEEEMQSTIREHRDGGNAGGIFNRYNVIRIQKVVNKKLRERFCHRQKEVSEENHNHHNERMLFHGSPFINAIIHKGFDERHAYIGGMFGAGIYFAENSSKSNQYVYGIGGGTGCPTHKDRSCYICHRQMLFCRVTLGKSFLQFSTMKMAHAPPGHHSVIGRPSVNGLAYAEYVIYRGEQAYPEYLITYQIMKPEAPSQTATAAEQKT
Description: as §1, §2, §3

[3] = target: T3, GST-tagged Tankyrase-1 (1023-1327 aa) (Homo sapiens, UniProt O95271); test: Tankyrase 1 autoparsylation assay (HTRF enzyme assay); assay type: biochemical
T3 construct: GST-tagged Tankyrase-1 (1023-1327 aa)
T3 sequence (O95271 1023-1327): as above
Description: The autoparsylation assay was run in two steps: the enzymatic reaction in which GST-tagged Tankyrase-1, resp Tankyrase-2 transferred biotinylated ADP-ribose to itself from biotinylated NAD as co-substrate and the detection reaction where a time resolved FRET between cryptate labelled anti-GST bound to the GST tag of the enzyme and Xlent® labelled-streptavidin bound the biotin-parsylation residue was analysed. The autoparsylation activity was detectable directly via the increase in HTRF signal.
The autoparsylation assay was performed as 384-well HTRF® (Cisbio, Codolet, France) assay format in Greiner low volume nb 384-well microtiter plates and was used for high throughput screen. 250 nM GST-tagged Tankyrase-1 (1023-1327 aa), respectively about 250 nM GST-tagged Tankyrase-2 (873-1166 aa) and 5 μM bio-NAD (Biolog, Life science Inst., Bremen, Germany) as co-substrate were incubated in a total volume of 5 μl (50 mM HEPES, 4 mM Mg-chloride, 0.05% Pluronic F-68, 1.4 mM DTT, 0.5% DMSO, pH 7.7) in the absence or presence of the test compound (10 dilution concentrations) for 90 min at 30° C. The reaction was stopped by the addition of 1 μl 50 mM EDTA solution. 2 μl of the detection solution (1.6 μM SA-Xlent® (Cisbio, Codolet, France), 7.4 nM Anti-GST-K® (Eu-labelled anti-GST, Cisbio, Codolet, France) in 50 mM HEPES, 800 mM KF, 0.1% BSA, 20 mM EDTA, 0.1% CHAPS, pH 7.0) were added. After 1 h incubation at room temperature the HTRF was measured with an Envision multimode reader (Perkin Elmer LAS Germany GmbH) at excitation wavelength 340 nm (laser mode) and emission wavelengths 615 nm and 665 nm. The ratio of the emission signals was determined. The full value used was the inhibitor-free reaction. The pharmacological zero value used was XAV-939 (Tocris) in a final concentration of 5 μM. The inhibitory values (IC50) were determined using either the program Symyx Assay Explorer® or Condosseo® from GeneData.

tankyrase 1/2 = test: Measurement of cellular inhibition of tankyrase (Axin2 level, Luminex based assay, DLD1 cells); conditions: 24 hours, increase of Axin2 level, read-out: EC50 tankyrase 1/2 (cell assay)
Description: Measurement of Cellular Inhibition of Tankyrase
Since Tankyrases have been described to modulate cellular level of Axin2 (Huang et al., 2009; Nature) the increase of Axin2 level is used as read-out for determination of cellular inhibition of Tankyrases in a Luminex based assay.
Cells of the colon carcinoma cell line DLD1 are plated in 96 well plates with 1.5×10^4 cells per well. Next day, cells are treated with a serial-dilution of test compound in seven steps as triplicates with a final DMSO concentration of 0.3%. After 24 hours, cells are lysed in lysis buffer (20 mM Tris/HCl pH 8.0, 150 mM NaCl, 1% NP40, 10% Glycerol) and lysates are cleared by centrifugation through a 96 well filter plate (0.65 μm). Axin2 protein is isolated from cell lysates by incubation with a monoclonal anti-Axin2 antibody (R&D Systems #MAB6078) that is bound to fluorescent carboxybeads. Then, bound Axin2 is specifically detected with a polyclonal anti-Axin2 antibody (Cell Signaling #2151) and an appropriate PE-fluorescent secondary antibody. The amount of isolated Axin2 protein is determined in a Luminex^200 machine (Luminex Corporation) according to the manufacturer's instruction by counting 100 events per well. […] For analysis, the obtained data were normalized against the untreated solvent control and fitted for determination of the EC50 values using the Assay Explorer software (Accelrys).

T1 sequence (Q9H2K2 873-1166): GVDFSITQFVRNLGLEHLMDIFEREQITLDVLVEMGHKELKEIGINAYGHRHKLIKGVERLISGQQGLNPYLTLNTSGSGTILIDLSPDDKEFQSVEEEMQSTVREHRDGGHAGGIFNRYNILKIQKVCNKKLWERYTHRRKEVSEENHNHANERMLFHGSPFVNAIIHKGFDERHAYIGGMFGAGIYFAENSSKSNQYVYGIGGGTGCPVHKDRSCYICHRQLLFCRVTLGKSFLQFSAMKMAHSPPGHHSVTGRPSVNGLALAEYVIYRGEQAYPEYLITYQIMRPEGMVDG

## COc1ccc(N2CCN(c3nc4c(c(=O)[nH]3)CCCC4)CC2)cc1 [Compound A3, 2-[4-(4-methoxy-phenyl)-piperazin-1-yl]-5,6,7,8-tetrahydro-3H-quinazolin-4-one]
[1]
  IC50: < 300 nM
[2]
  IC50: < 300 nM
[3]
  IC50: 300 to 3000 nM
Tankyrase 1/2
  EC50: 300 to 3000 nM

## O=c1[nH]c(N2CCN(c3ccc(F)cc3)CC2)nc2c1CCCC2 [Compound A6, 2-[4-(4-Fluorophenyl)piperazin-1-yl]-5,6,7,8-tetrahydro-3H-quinazolin-4-one]
[1]
  IC50: < 300 nM
[2]
  IC50: < 300 nM
[3]
  IC50: 300 to 3000 nM
Tankyrase 1/2
  EC50: 300 to 3000 nM

## COc1cccc(N2CCN(c3nc4c(c(=O)[nH]3)CCCC4)CC2)c1 [Compound A7, 2-[4-(3-Methoxyphenyl)piperazin-1-yl]-5,6,7,8-tetrahydro-3H-quinazolin-4-one]
[1]
  IC50: < 300 nM
[2]
  IC50: < 300 nM
[3]
  IC50: < 300 nM
Tankyrase 1/2
  EC50: 300 to 3000 nM

## O=c1[nH]c(N2CCN(c3ccccc3Cl)CC2)nc2c1CCCC2 [Compound A9, 2-[4-(2-Chlorophenyl)piperazin-1-yl]-5,6,7,8-tetrahydro-3H-quinazolin-4-one]
[1]
  IC50: < 300 nM
[2]
  IC50: < 300 nM
[3]
  IC50: < 300 nM
Tankyrase 1/2
  EC50: 300 to 3000 nM

## COc1ccccc1N1CCN(c2nc3c(c(=O)[nH]2)CCCC3)CC1 [Compound A12, 2-[4-(2-Methoxyphenyl)piperazin-1-yl]-5,6,7,8-tetrahydro-3H-quinazolin-4-one]
[1]
  IC50: < 300 nM
[2]
  IC50: < 300 nM
[3]
  IC50: < 300 nM
Tankyrase 1/2
  EC50: 300 to 3000 nM

## N#Cc1ccccc1N1CCN(c2nc3c(c(=O)[nH]2)CCCC3)CC1 [Compound A33, 2-[4-(4-oxo-5,6,7,8-tetrahydro-3H-quinazolin-2-yl)piperazin-1-yl]benzonitrile]
[1]
  IC50: < 300 nM
[2]
  IC50: < 300 nM
[3]
  IC50: < 300 nM
Tankyrase 1/2
  EC50: 300 to 3000 nM

## COc1cc(F)ccc1N1CCN(c2nc3c(c(=O)[nH]2)CCCC3)CC1 [Compound A36, 2-[4-(4-fluoro-2-methoxy-phenyl)piperazin-1-yl]-5,6,7,8-tetrahydro-3H-quinazolin-4-one]
[1]
  IC50: < 300 nM
[2]
  IC50: < 300 nM
[3]
  IC50: < 300 nM
Tankyrase 1/2
  EC50: 300 to 3000 nM
